Measurements published in the NIST ThermoML archive (doi:10.1016/j.jct.2006.04.007).
Values joined by “and” are separate entries in the source; they are usually repeats but may differ in a detail not shown here. Equal entries are not always repeated.

Experiment: mn = molality of the nth substance listed, in mol/kg
Details: 350 kPa, Liquid; for apparent molar heat capacity: Extra sensitive DSC

CC(=O)N[C@@H](C=O)[C@@H](O)[C@H](O)[C@H](O)CO [N-acetyl-D-glucosamine] + O
Details | apparent molar heat capacity | mass density
278.15 K, m1 = 0.0096 | 385 J/K/mol | –
278.15 K, m1 = 0.01 | – | 1000.31 kg/m3
278.15 K, m1 = 0.02 | – | 1001.78 kg/m3
278.15 K, m1 = 0.0207 | 377 J/K/mol | –
278.15 K, m1 = 0.03 | 365 J/K/mol and 358 J/K/mol | 1002.26 kg/m3 and 1001.98 kg/m3
278.15 K, m1 = 0.07 | 362 J/K/mol | 1005.5 kg/m3
278.15 K, m1 = 0.1502 | 348.5 J/K/mol | 1012.23 kg/m3
278.15 K, m1 = 0.1999 | 368.5 J/K/mol | 1014.67 kg/m3
278.15 K, m1 = 0.3018 | 373.1 J/K/mol | 1021.8 kg/m3
278.15 K, m1 = 0.5001 | 378.3 J/K/mol | 1035.28 kg/m3
278.15 K, m1 = 0.7003 | 380.2 J/K/mol | 1047.7 kg/m3
278.15 K, m1 = 0.958 | 358.2 J/K/mol | 1065.18 kg/m3
283.15 K, m1 = 0.0096 | 416 J/K/mol | –
283.15 K, m1 = 0.01 | – | 1000.13 kg/m3
283.15 K, m1 = 0.02 | – | 1001.42 kg/m3
283.15 K, m1 = 0.0207 | 403 J/K/mol | –
283.15 K, m1 = 0.03 | 385 J/K/mol and 387 J/K/mol | 1001.76 kg/m3 and 1002.02 kg/m3
283.15 K, m1 = 0.07 | 385 J/K/mol | 1005.11 kg/m3
283.15 K, m1 = 0.1502 | 374.5 J/K/mol | 1011.82 kg/m3
283.15 K, m1 = 0.1999 | 392.8 J/K/mol | 1014.24 kg/m3
283.15 K, m1 = 0.3018 | 396.5 J/K/mol | 1021.3 kg/m3
283.15 K, m1 = 0.5001 | 401.6 J/K/mol | 1034.59 kg/m3
283.15 K, m1 = 0.7003 | 403.8 J/K/mol | 1046.91 kg/m3
283.15 K, m1 = 0.958 | 381.8 J/K/mol | 1064.21 kg/m3
288.15 K, m1 = 0.0096 | 435 J/K/mol | –
288.15 K, m1 = 0.01 | – | 999.6 kg/m3
288.15 K, m1 = 0.02 | – | 1000.86 kg/m3
288.15 K, m1 = 0.0207 | 421 J/K/mol | –
288.15 K, m1 = 0.03 | 404 J/K/mol and 401 J/K/mol | 1001.23 kg/m3 and 1001.43 kg/m3
288.15 K, m1 = 0.07 | 405 J/K/mol | 1004.42 kg/m3
288.15 K, m1 = 0.1502 | 394.4 J/K/mol | 1011.1 kg/m3
288.15 K, m1 = 0.1999 | 411.9 J/K/mol | 1013.51 kg/m3
288.15 K, m1 = 0.3018 | 415.2 J/K/mol | 1020.51 kg/m3
288.15 K, m1 = 0.5001 | 420.1 J/K/mol | 1033.66 kg/m3
288.15 K, m1 = 0.7003 | 422 J/K/mol | 1045.87 kg/m3
288.15 K, m1 = 0.958 | 400.5 J/K/mol | 1063.03 kg/m3
293.15 K, m1 = 0.0096 | 450 J/K/mol | –
293.15 K, m1 = 0.0207 | 436 J/K/mol | –
293.15 K, m1 = 0.03 | 420 J/K/mol and 415 J/K/mol | –
293.15 K, m1 = 0.07 | 421 J/K/mol | –
293.15 K, m1 = 0.1502 | 411.4 J/K/mol | –
293.15 K, m1 = 0.1999 | 428.3 J/K/mol | –
293.15 K, m1 = 0.3018 | 431.3 J/K/mol | –
293.15 K, m1 = 0.5001 | 436 J/K/mol | –
293.15 K, m1 = 0.7003 | 437.9 J/K/mol | –
293.15 K, m1 = 0.958 | 416.6 J/K/mol | –
298.15 K, m1 = 0.0096 | 462 J/K/mol | –
298.15 K, m1 = 0.0207 | 449 J/K/mol | –
298.15 K, m1 = 0.03 | 433 J/K/mol and 432 J/K/mol | –
298.15 K, m1 = 0.07 | 437 J/K/mol | –
298.15 K, m1 = 0.1502 | 426.5 J/K/mol | –
298.15 K, m1 = 0.1999 | 442.5 J/K/mol | –
298.15 K, m1 = 0.3018 | 445.2 J/K/mol | –
298.15 K, m1 = 0.5001 | 449.8 J/K/mol | –
298.15 K, m1 = 0.7003 | 451.5 J/K/mol | –
298.15 K, m1 = 0.958 | 430.5 J/K/mol | –
303.15 K, m1 = 0.0096 | 474 J/K/mol | –
303.15 K, m1 = 0.0207 | 461 J/K/mol | –
303.15 K, m1 = 0.03 | 445 J/K/mol and 447 J/K/mol | –
303.15 K, m1 = 0.07 | 451 J/K/mol | –
303.15 K, m1 = 0.1502 | 440 J/K/mol | –
303.15 K, m1 = 0.1999 | 455 J/K/mol | –
303.15 K, m1 = 0.3018 | 457.8 J/K/mol | –
303.15 K, m1 = 0.5001 | 462.3 J/K/mol | –
303.15 K, m1 = 0.7003 | 463.7 J/K/mol | –
303.15 K, m1 = 0.958 | 443.2 J/K/mol | –
308.15 K, m1 = 0.0096 | 486 J/K/mol | –
308.15 K, m1 = 0.01 | – | 994.68 kg/m3
308.15 K, m1 = 0.02 | – | 995.7 kg/m3
308.15 K, m1 = 0.0207 | 472 J/K/mol | –
308.15 K, m1 = 0.03 | 456 J/K/mol and 459 J/K/mol | 996.2 kg/m3 and 996.26 kg/m3
308.15 K, m1 = 0.07 | 462 J/K/mol | 999.2 kg/m3
308.15 K, m1 = 0.1502 | 452.2 J/K/mol | 1005.72 kg/m3
308.15 K, m1 = 0.1999 | 466.4 J/K/mol | 1008.07 kg/m3
308.15 K, m1 = 0.3018 | 469.2 J/K/mol | 1014.85 kg/m3
308.15 K, m1 = 0.5001 | 473.5 J/K/mol | 1027.59 kg/m3
308.15 K, m1 = 0.7003 | 474.7 J/K/mol | 1039.58 kg/m3
308.15 K, m1 = 0.958 | 454.6 J/K/mol | 1056.31 kg/m3
313.15 K, m1 = 0.0096 | 496 J/K/mol | –
313.15 K, m1 = 0.0207 | 482 J/K/mol | –
313.15 K, m1 = 0.03 | 465 J/K/mol and 470 J/K/mol | –
313.15 K, m1 = 0.07 | 473.4 J/K/mol | –
313.15 K, m1 = 0.1502 | 463.3 J/K/mol | –
313.15 K, m1 = 0.1999 | 476.7 J/K/mol | –
313.15 K, m1 = 0.3018 | 479.6 J/K/mol | –
313.15 K, m1 = 0.5001 | 483.8 J/K/mol | –
313.15 K, m1 = 0.7003 | 484.8 J/K/mol | –
313.15 K, m1 = 0.958 | 465.2 J/K/mol | –
318.15 K, m1 = 0.0096 | 506 J/K/mol | –
318.15 K, m1 = 0.01 | – | 990.9 kg/m3
318.15 K, m1 = 0.02 | – | 991.84 kg/m3
318.15 K, m1 = 0.0207 | 491 J/K/mol | –
318.15 K, m1 = 0.03 | 474 J/K/mol and 479 J/K/mol | 992.39 kg/m3 and 992.41 kg/m3
318.15 K, m1 = 0.07 | 483.8 J/K/mol | 995.31 kg/m3
318.15 K, m1 = 0.1502 | 473.6 J/K/mol | 1001.76 kg/m3
318.15 K, m1 = 0.1999 | 486.3 J/K/mol | –
318.15 K, m1 = 0.3018 | 489.2 J/K/mol | –
318.15 K, m1 = 0.5001 | 493.4 J/K/mol | –
318.15 K, m1 = 0.7003 | 494.2 J/K/mol | –
318.15 K, m1 = 0.958 | 475 J/K/mol | –
